From PubChem BioAssay AID1918955 (Molecular Pharmacology Branch, DTP, NCI, 2023)

Tested on: NCI/ADR-RES complex spheroid viability
Experiment: Anticancer human tumor NCI/ADR-RES cell line growth inhibition;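 also: spheroids exposed to compounds for 7 days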;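 as to viability, T/C: 100% = DMSO vehicle treated spheroids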
Settings: for IC50: curve of first compound; for viability, T/C: stronger effect = lower value
Method in brief: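 Drug combinations with the LSD1 inhibitor iadademstat tested on tumor cells co-cultured as spheroids with endothelial cells and mesenchymal stem cells. Concentrations descended in half-log increments from clinical Cmax or 10 microM.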

[1] = second compound 0.1 µM, first compound 0.0316 µM
[2] = second compound 0.1 µM, first compound 0.1 µM
[3] = second compound 0.1 µM, first compound 0.316 µM
[4] = second compound 0.1 µM, first compound 1 µM
[5] = second compound 0.1 µM, first compound 3.16 µM
[6] = second compound 0.1 µM, first compound 10 µM
[7] = second compound 0.316 µM, first compound 0.0316 µM
[8] = second compound 0.316 µM, first compound 0.1 µM
[9] = second compound 0.316 µM, first compound 0.316 µM
[10] = second compound 0.316 µM, first compound 1 µM
[11] = second compound 0.316 µM, first compound 3.16 µM
[12] = second compound 0.316 µM, first compound 10 µM
[13] = second compound 1 µM, first compound 0.0316 µM
[14] = second compound 1 µM, first compound 0.1 µM
[15] = second compound 1 µM, first compound 0.316 µM
[16] = second compound 1 µM, first compound 1 µM
[17] = second compound 1 µM, first compound 3.16 µM
[18] = second compound 1 µM, first compound 10 µM
[19] = second compound 3.16 µM, first compound 0.0316 µM
[20] = second compound 3.16 µM, first compound 0.1 µM
[21] = second compound 3.16 µM, first compound 0.316 µM
[22] = second compound 3.16 µM, first compound 1 µM
[23] = second compound 3.16 µM, first compound 3.16 µM
[24] = second compound 3.16 µM, first compound 10 µM
[25] = second compound 10 µM, first compound 0.0316 µM
[26] = second compound 10 µM, first compound 0.1 µM
[27] = second compound 10 µM, first compound 0.316 µM
[28] = second compound 10 µM, first compound 1 µM
[29] = second compound 10 µM, first compound 3.16 µM
[30] = second compound 10 µM, first compound 10 µM
[31] = second compound 0.1 µM, first compound 0.00316 µM
[32] = second compound 0.1 µM, first compound 0.01 µM
[33] = second compound 0.316 µM, first compound 0.00316 µM
[34] = second compound 0.316 µM, first compound 0.01 µM
[35] = second compound 1 µM, first compound 0.00316 µM
[36] = second compound 1 µM, first compound 0.01 µM
[37] = second compound 3.16 µM, first compound 0.00316 µM
[38] = second compound 3.16 µM, first compound 0.01 µM
[39] = second compound 10 µM, first compound 0.00316 µM
[40] = second compound 10 µM, first compound 0.01 µM

## CC(C)c1c(-c2ccccc2)nc2c(C#N)c[nH]n2c1=O + NC1CC1c1ccc(-c2cccc(O)c2)cc1
Second compound 0.1 µM
  IC50: > 10000 nM
Second compound 0.316 µM
  IC50: > 10000 nM
Second compound 1 µM
  IC50: > 10000 nM
Second compound 3.16 µM
  IC50: > 10000 nM
Second compound 10 µM
  IC50: > 10000 nM
[1]
  viability, T/C: 104%
[2]
  viability, T/C: 107%
[3]
  viability, T/C: 102%
[4]
  viability, T/C: 103%
[5]
  viability, T/C: 108%
[6]
  viability, T/C: 95.3%
[7]
  viability, T/C: 113%
[8]
  viability, T/C: 106%
[9]
  viability, T/C: 104%
[10]
  viability, T/C: 102%
[11]
  viability, T/C: 109%
[12]
  viability, T/C: 98.9%
[13]
  viability, T/C: 109%
[14]
  viability, T/C: 101%
[15]
  viability, T/C: 106%
[16]
  viability, T/C: 106%
[17]
  viability, T/C: 100%
[18]
  viability, T/C: 96.5%
[19]
  viability, T/C: 106%
[20]
  viability, T/C: 108%
[21]
  viability, T/C: 106%
[22]
  viability, T/C: 107%
[23]
  viability, T/C: 97.6%
[24]
  viability, T/C: 98.9%
[25]
  viability, T/C: 87%
[26]
  viability, T/C: 96.3%
[27]
  viability, T/C: 91.7%
[28]
  viability, T/C: 91.2%
[29]
  viability, T/C: 89.2%
[30]
  viability, T/C: 84.2%

## COc1ccc([C@@H](O)c2cc(-c3ncnc4cc(N5CCOCC5)ccc34)c(F)cc2Cl)nn1 + NC1CC1c1ccc(-c2cccc(O)c2)cc1
Second compound 0.1 µM
  IC50: 3050 nM
Second compound 0.316 µM
  IC50: 3240 nM
Second compound 1 µM
  IC50: 3230 nM
Second compound 3.16 µM
  IC50: 3250 nM
Second compound 10 µM
  IC50: 1940 nM
[1]
  viability, T/C: 106%
[2]
  viability, T/C: 99.8%
[3]
  viability, T/C: 84.8%
[4]
  viability, T/C: 68.4%
[5]
  viability, T/C: 50.7%
[6]
  viability, T/C: 25.9%
[7]
  viability, T/C: 106%
[8]
  viability, T/C: 105%
[9]
  viability, T/C: 92.7%
[10]
  viability, T/C: 74%
[11]
  viability, T/C: 51.4%
[12]
  viability, T/C: 27.7%
[13]
  viability, T/C: 105%
[14]
  viability, T/C: 99.1%
[15]
  viability, T/C: 90.6%
[16]
  viability, T/C: 73.1%
[17]
  viability, T/C: 50.5%
[18]
  viability, T/C: 25.7%
[19]
  viability, T/C: 101%
[20]
  viability, T/C: 96%
[21]
  viability, T/C: 83.4%
[22]
  viability, T/C: 72.4%
[23]
  viability, T/C: 50.5%
[24]
  viability, T/C: 22.6%
[25]
  viability, T/C: 84.6%
[26]
  viability, T/C: 87.3%
[27]
  viability, T/C: 77%
[28]
  viability, T/C: 61.8%
[29]
  viability, T/C: 41.4%
[30]
  viability, T/C: 23.2%

## CC[C@@]1(O)C(=O)OCc2c1cc1n(c2=O)Cc2cc3c(CN(C)C)c(O)ccc3nc2-1 + NC1CCC(NC2CC2c2ccccc2)CC1
Second compound 0.1 µM
  IC50: 8.31 nM
Second compound 0.316 µM
  IC50: 8.18 nM
Second compound 1 µM
  IC50: 9.09 nM
Second compound 3.16 µM
  IC50: 7.45 nM
Second compound 10 µM
  IC50: 5.56 nM
Second compound 0.1 µM, first compound 0.000316 µM
  viability, T/C: 104%
Second compound 0.1 µM, first compound 0.001 µM
  viability, T/C: 97.8%
[31]
  viability, T/C: 86.5%
[32]
  viability, T/C: 43.4%
[1]
  viability, T/C: 9.03%
[2]
  viability, T/C: 3.21%
Second compound 0.316 µM, first compound 0.000316 µM
  viability, T/C: 118%
Second compound 0.316 µM, first compound 0.001 µM
  viability, T/C: 116%
[33]
  viability, T/C: 86.7%
[34]
  viability, T/C: 42.9%
[7]
  viability, T/C: 10.8%
[8]
  viability, T/C: 2.57%
Second compound 1 µM, first compound 0.000316 µM
  viability, T/C: 103%
Second compound 1 µM, first compound 0.001 µM
  viability, T/C: 103%
[35]
  viability, T/C: 92.9%
[36]
  viability, T/C: 46.2%
[13]
  viability, T/C: 8.05%
[14]
  viability, T/C: 2.63%
Second compound 3.16 µM, first compound 0.000316 µM
  viability, T/C: 108%
Second compound 3.16 µM, first compound 0.001 µM
  viability, T/C: 98.8%
[37]
  viability, T/C: 91.3%
[38]
  viability, T/C: 35.6%
[19]
  viability, T/C: 10.1%
[20]
  viability, T/C: 4.55%
Second compound 10 µM, first compound 0.000316 µM
  viability, T/C: 98.5%
Second compound 10 µM, first compound 0.001 µM
  viability, T/C: 95.3%
[39]
  viability, T/C: 66.8%
[40]
  viability, T/C: 32%
[25]
  viability, T/C: 7.06%
[26]
  viability, T/C: 2.23%

## COc1cc(C2c3cc4c(cc3C(OC3OC5COC(C)OC5C(O)C3O)C3COC(=O)C23)OCO4)cc(OC)c1O (stereo not given) + NC1CCC(NC2CC2c2ccccc2)CC1
Second compound 0.1 µM
  IC50: > 3000 nM
Second compound 0.316 µM
  IC50: > 3000 nM
Second compound 1 µM
  IC50: > 3000 nM
Second compound 3.16 µM
  IC50: > 3000 nM
Second compound 10 µM
  IC50: > 3000 nM
Second compound 0.1 µM, first compound 0.00949 µM
  viability, T/C: 92.9%
Second compound 0.1 µM, first compound 0.03 µM
  viability, T/C: 103%
Second compound 0.1 µM, first compound 0.0949 µM
  viability, T/C: 99.4%
Second compound 0.1 µM, first compound 0.3 µM
  viability, T/C: 100%
Second compound 0.1 µM, first compound 0.949 µM
  viability, T/C: 98.3%
Second compound 0.1 µM, first compound 3 µM
  viability, T/C: 91.1%
Second compound 0.316 µM, first compound 0.00949 µM
  viability, T/C: 101%
Second compound 0.316 µM, first compound 0.03 µM
  viability, T/C: 101%
Second compound 0.316 µM, first compound 0.0949 µM
  viability, T/C: 103%
Second compound 0.316 µM, first compound 0.3 µM
  viability, T/C: 100%
Second compound 0.316 µM, first compound 0.949 µM
  viability, T/C: 95.6%
Second compound 0.316 µM, first compound 3 µM
  viability, T/C: 94.4%
Second compound 1 µM, first compound 0.00949 µM
  viability, T/C: 98.8%
Second compound 1 µM, first compound 0.03 µM
  viability, T/C: 96.5%
Second compound 1 µM, first compound 0.0949 µM
  viability, T/C: 95.8%
Second compound 1 µM, first compound 0.3 µM
  viability, T/C: 96.6%
Second compound 1 µM, first compound 0.949 µM
  viability, T/C: 94.7%
Second compound 1 µM, first compound 3 µM
  viability, T/C: 91.3%
Second compound 3.16 µM, first compound 0.00949 µM
  viability, T/C: 96.9%
Second compound 3.16 µM, first compound 0.03 µM
  viability, T/C: 91.8%
Second compound 3.16 µM, first compound 0.0949 µM
  viability, T/C: 99.2%
Second compound 3.16 µM, first compound 0.3 µM
  viability, T/C: 97.3%
Second compound 3.16 µM, first compound 0.949 µM
  viability, T/C: 94.5%
Second compound 3.16 µM, first compound 3 µM
  viability, T/C: 86.1%
Second compound 10 µM, first compound 0.00949 µM
  viability, T/C: 93%
Second compound 10 µM, first compound 0.03 µM
  viability, T/C: 92%
Second compound 10 µM, first compound 0.0949 µM
  viability, T/C: 86.3%
Second compound 10 µM, first compound 0.3 µM
  viability, T/C: 90.3%
Second compound 10 µM, first compound 0.949 µM
  viability, T/C: 81.6%
Second compound 10 µM, first compound 3 µM
  viability, T/C: 82%

## Nc1ncn(C2CC(O)C(CO)O2)c(=O)n1 (stereo not given) + NC1CCC(NC2CC2c2ccccc2)CC1
Second compound 0.1 µM
  IC50: 82.7 nM
Second compound 0.316 µM
  IC50: 126 nM
Second compound 1 µM
  IC50: 76.7 nM
Second compound 3.16 µM
  IC50: 59.7 nM
Second compound 10 µM
  IC50: 18.5 nM
[31]
  viability, T/C: 109%
[32]
  viability, T/C: 113%
[1]
  viability, T/C: 73.4%
[2]
  viability, T/C: 48.6%
[3]
  viability, T/C: 26.1%
[4]
  viability, T/C: 23.5%
[33]
  viability, T/C: 106%
[34]
  viability, T/C: 91%
[7]
  viability, T/C: 78.3%
[8]
  viability, T/C: 53%
[9]
  viability, T/C: 33.8%
[10]
  viability, T/C: 18.9%
[35]
  viability, T/C: 105%
[36]
  viability, T/C: 91.7%
[13]
  viability, T/C: 74.6%
[14]
  viability, T/C: 41%
[15]
  viability, T/C: 28.2%
[16]
  viability, T/C: 19.4%
[37]
  viability, T/C: 93.3%
[38]
  viability, T/C: 83.3%
[19]
  viability, T/C: 63.1%
[20]
  viability, T/C: 40%
[21]
  viability, T/C: 24.1%
[22]
  viability, T/C: 20.8%
[39]
  viability, T/C: 63%
[40]
  viability, T/C: 57.8%
[25]
  viability, T/C: 43.1%
[26]
  viability, T/C: 27.3%
[27]
  viability, T/C: 17.2%
[28]
  viability, T/C: 15.9%
